The values below are quoted from earlier work in patent US20250127900A1, “STABLE PHARMACEUTICAL COMPOSITIONS” (MANKIND PHARMA LTD., priority 2021, published 2025).

The conditions of data set [1]: for Acceptable intake, EMA: EMA limit; for Acceptable intake, FDA: FDA limit.
The conditions of data set [2]: in vivo.

As for `CC(C)N(N=O)C(C)C` [N-Nitrosodiisopropylamine], in data set [1], the “Acceptable intake, EMA” value is recorded as 26.5 ng/day and the “Acceptable intake, FDA” value is on record as 26.5 ng/day.

Regarding `CN(C)N=O` [N-Nitrosodimethylamine], in data set [1], the “Acceptable intake, EMA” value was 96 ng/day and the “Acceptable intake, FDA” value is 96 ng/day. In addition, the 50% lethal dose (LD50) in data set [2] was 10 mg/kg.

In the case of `CCN(CC)N=O` [N-Nitrosodiethylamine], in data set [1], the “Acceptable intake, EMA” value was 26.5 ng/day and the “Acceptable intake, FDA” value is listed as 26.5 ng/day.
